# Data as given in patent US11071770B2, “Methods for detecting cardiac damage” (Acorda Therapeutics, Inc., priority 2007, dated 2021).
# Marks after values point to notes of the source that are not given here. Where a SMILES comes first, the peptide text is derived from it. The star is where a group is joined. Cbz = O=C(OCc1ccccc1)*
# B1: NRG1: GGF2, a recombinant neuregulin-1; gift from Acorda Therapeutics (protein)
# chain: GNEAAPAGASVCYSSPPSVGSVQELAQRAAVVIEGKVHPQRRQQGALDRKAAAAAGEAGAWGGDREPPAAGPRALGPPAEEPLLAANGTVPSWPTAPVPSAGEPGEEAPYLVKVHQVWAVKAGGLKKDSLLTVRLGTWGHPAFPSCGRLKEDSRYIFFMEPDANSTSRAPAAFRASFPPLETGRNLKKEVSRVLCKRCALPPRLKEMKSQESAAGSKLVLRCETSSEYSSLRFKWFKNGNELNRKNKPQNIKIQKKPGKSELRINKASLADSGEYMCKVISKLGNDSASANITIVESNATSTSTTGTSHLVKCAEKEKTFCVNGGECFMVKDLSNPSRYLCKCPNEFTGDRCQNYVMASFYSTSTPFLSLPE
# How the values were obtained:
# [1] = tested on: neonatal rat cardiomyocytes; settings: NRCM, doxorubicin 1 uM
# [2] = tested on: cTnI, cTnT and cTnC protein levels; assay: Cardiac structural protein levels in heart by Western blot; assay type: in vivo, mouse
# Method: (§1) FIGS. 1A-1C show survival graphs (A), histograms (B-C), and immunoblots (C). […] Fourteen day survival was analyzed by the Kaplan-Meier method.
# Eight to ten week old C57BL/6 male mice were used for analyses wherein heart samples were isolated. […] Heart samples (n=3-4 per group) were collected and snap-frozen in liquid nitrogen.
# [3] = tested on: caspase 3, 6 and 9 as well as caspase-10, 2, and 5; assay: Caspase activation assay in cardiomyocytes; assay type: cell-based, rat; settings: Dox or Dox+NRG1
# Text: To investigate whether NRG1 inhibited doxorubicin-induced caspase degradation of cTnI and cTnT, the present inventors first identified the specific caspases that were responsible for doxorubicin-induced degradation of cTnI and cTnT. […] In addition, down-regulation of cTnI was blocked by inhibitors for caspase-10 (extrinsic pathway), caspase-2, caspase-13 or caspase-5.
# [4] = tested on: mice with cardiac myocyte-specific overexpression of a dominant negative PI3K; assay: Survival of doxorubicin-treated WT and dnPI3K transgenic mice (Kaplan-Meier); assay type: in vivo, mouse; settings: doxorubicin 20 mg/kg i.p., fourteen-day
# [5] = tested on: cytochrome c release; assay: Cytochrome c release (cell fractionation and Western blot); assay type: cell-based, rat; settings: NRCM, Dox or Dox+NRG1
# [6] = tested on: mRNA of cTnI, cTnT, GATA4, MEF2c and Nkx2.5; assay: mRNA levels by quantitative RT-PCR in cardiomyocytes; assay type: cell-based, rat; settings: for mRNA level of cTnI and cTnT: cardiomyocytes, Dox or Dox+NRG1
# [7] = tested on: serum creatine kinase (CK); assay: Serum creatine kinase (CK) level; assay type: in vivo, mouse; settings: four days after doxorubicin injection
# Method: as §1
# Serum creatine kinase (CK) levels, an index of cardiac injury, were also assessed to provide an additional read-out of heart function.
# [8] = tested on: C57BL/6 mice; assay: Two-week survival of doxorubicin-treated mice (Kaplan-Meier); assay type: in vivo, mouse; settings: two weeks after doxorubicin 20 mg/kg i.p.; NRG1 0.75 mg/kg s.c. daily vs placebo; doxorubicin vs non-treated control
# Method: as §1
# Cardiac function was assessed by direct left ventricular (LV) catheterization four days and two weeks after doxorubicin treatment. Two-week survival was analyzed by the Kaplan-Meier methods.
# [9] = tested on: cTnI and cTnT protein levels; assay: cTnI and cTnT protein levels in hearts of doxorubicin-treated WT and dnPI3K mice; assay type: in vivo, mouse; settings: two weeks after doxorubicin injection
# Method: FIGS. 5A-5C show a survival graph (A), histograms (B), and an immunoblot (C). […] Fourteen-day survival was analyzed by the Kaplan-Meier method. FIG. 5B depicts hemodynamic measurements in doxorubicin-treated dnPI3K mice. […] Hemodynamic measurements were performed six days after the doxorubicin treatment.
# The present inventors measured cTnI and cTnT protein levels in doxorubicin-treated WT and dnPI3K mice.
# [10] = tested on: C57BL/6 mice; assay: Hemodynamic measurements by direct left ventricular catheterization, body and heart weights; assay type: in vivo, mouse
# [11] = tested on: cTnI; assay: Ubiquitinylation of cTnI (immunoprecipitation, ubiquitin antibody); assay type: cell-based, rat; settings: NRCM, Dox or Dox+NRG1
# [12] = tested on: mTOR, P70S6K, S6 and eIF4G; assay: Phosphorylation of translational molecules by Western blot; assay type: cell-based, rat; settings: cardiomyocytes, 48 hours after the treatment
# Method: The phosphorylation levels of mTOR, P70S6K, S6, 4EBP and EIF4G were analyzed by Western blot analysis.
# We assessed the activation of several translation machineries and related signaling pathways in Dox-Placebo and Dox-NRG1 treated cardiomyocytes.
# [13] = WT mice, NRG1 0.75 mg/kg s.c. or placebo
# [14] = doxorubicin-treated cardiomyocytes
molecule,measurement,setting,value
CC(C)C[C@@H](C=O)NC(=O)[C@H](CC(C)C)NC(=O)[C@H](CC(C)C)NC(=O)OCc1ccccc1 [MG132] (Cbz-Leu-Leu-Leu-aldehyde),effect on doxorubicin-induced down-regulation of cTnI,[1],blocked
COc1cccc2c1C(=O)c1c(O)c3c(c(O)c1C2=O)C[C@@](O)(C(=O)CO)C[C@@H]3O[C@H]1C[C@H](N)[C@H](O)[C@H](C)O1 [doxorubicin],"levels of cardiac structural proteins (α-sarcomeric actin, α-actinin, TnT, TnI, TnC, tropomyosin) in hearts",[2]; doxorubicin 20 mg/kg i.p.,significantly decreased
same,"activation of caspase 3, 6 and 9 as well as caspase-10, 2, and 5",[3],significantly increased
same,survival rate,[4]; [13],33%
same,cytochrome c release to the cytosol,[5],induced increasing
same,mRNA level of cTnI and cTnT,[6],decreased
same,serum CK level compared to control mice,[7],significantly increased
same,survival,[8],significantly decreased
same,cTnI protein level in dnPI3K hearts,[9],decrease
same,cTnT protein levels in hearts of doxorubicin-treated mice compared to control mice,[9],No changes
same,BW,"[10]; C57BL/6 mice, doxorubicin 20 mg/kg i.p. single dose with placebo or NRG1 0.75 mg/kg s.c. daily, five days after doxorubicin",20 ± 0.4 g
same,Cardiac Output,[10]; as E1,1185 ± 203 µL/min
same,EF,[10]; as E1,17 ± 2 %
same,HW/BW,[10]; as E1,4.1 ± 0.1 mg/g
same,HW/TL,[10]; as E1,5.1 ± 0.1 mg/mm
same,LVEDP,[10]; as E1,3.6 ± 0.9^ mmHg
same,LVW/BW,[10]; as E1,3.5 ± 0.1^ mg/g
same,LVW/TL,[10]; as E1,4.4 ± 0.1 mg/mm
same,dP/dt max,[10]; as E1,7067 ± 884 ^ mmHg/sec
same,dP/dt min,[10]; as E1,5021 ± 602*^ mmHg/sec
same,LVSP,"[10]; as E1, LV systolic pressure",84 ± 2*^ mmHg
same,HW,"[10]; as E1, heart weight",83 ± 3 mg
same,LVW,"[10]; as E1, left ventricular weight",70 ± 1 mg
same,TL,"[10]; as E1, tibia length",16.3 ± 0.2 ^ mm
same,ubiquitinylation of cTnI,[11],increased
same,"phosphorylation levels of mTOR, P70S6K, S6 and eIF4G",[12],decreased
B1,"protein levels of cTnI, cTnT and cTnC in doxorubicin-injured hearts","[2]; NRG1 0.75 mg/kg s.c. daily, doxorubicin 20 mg/kg i.p., five days after doxorubicin",significantly increased
same,"protein levels of α-sarcomeric actin, α-actinin and tropomyosin in doxorubicin-injured hearts",[2]; NRG1 injection in vivo,had no effects
same,"activation of caspase 3, 6 and 9 as well as caspase-10, 2, and 5",[3],significantly inhibited
same,survival rate,[4]; [13],67%
same,survival rate,"[4]; dnPI3K mice, NRG1 0.75 mg/kg s.c.",56%
same,cytochrome c release to the cytosol,[5],inhibited this effect
same,mRNA level of cTnI and cTnT,[6],maintained
same,mRNA level of GATA4,[6]; [14],maintained
same,mRNA level of MEF2c and Nkx2.5,[6]; [14],slightly increased
same,survival,[8],significantly improved survival
same,cTnI protein level in dnPI3K hearts,[9],abolished doxorubicin-induced down-regulation
same,ubiquitinylation of cTnI,[11],abolished this effect
